What is called IC50 is the point on the concentration scale where inhibition reaches its midpoint. For orientation: Cmax means the highest concentration seen after dosing. The MRT is a mean duration of stay, worked out from the concentration-time curve.

Like-named read-outs stand apart in the source and are kept apart here.

Data set [1] deals with T1, mouse C1s (Mus musculus, UniProt Q8CG14).
T1 construct: Recombinant mouse C1s (22–694 aa) fused with both the N-terminal IgG signal peptide; IgG signal peptide (N); His tag (C); made in house; host or cells: Expi293 cells
T1 sequence (Q8CG14 438-688 limits assumed): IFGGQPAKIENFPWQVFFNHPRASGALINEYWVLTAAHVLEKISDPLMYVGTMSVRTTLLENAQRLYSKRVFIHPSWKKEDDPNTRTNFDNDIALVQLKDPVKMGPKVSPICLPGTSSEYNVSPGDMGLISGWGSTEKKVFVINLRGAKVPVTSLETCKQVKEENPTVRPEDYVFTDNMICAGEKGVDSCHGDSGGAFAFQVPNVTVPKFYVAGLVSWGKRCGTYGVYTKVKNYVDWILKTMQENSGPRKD
T1 sequence (Q8CG14 16-437 partner limits assumed): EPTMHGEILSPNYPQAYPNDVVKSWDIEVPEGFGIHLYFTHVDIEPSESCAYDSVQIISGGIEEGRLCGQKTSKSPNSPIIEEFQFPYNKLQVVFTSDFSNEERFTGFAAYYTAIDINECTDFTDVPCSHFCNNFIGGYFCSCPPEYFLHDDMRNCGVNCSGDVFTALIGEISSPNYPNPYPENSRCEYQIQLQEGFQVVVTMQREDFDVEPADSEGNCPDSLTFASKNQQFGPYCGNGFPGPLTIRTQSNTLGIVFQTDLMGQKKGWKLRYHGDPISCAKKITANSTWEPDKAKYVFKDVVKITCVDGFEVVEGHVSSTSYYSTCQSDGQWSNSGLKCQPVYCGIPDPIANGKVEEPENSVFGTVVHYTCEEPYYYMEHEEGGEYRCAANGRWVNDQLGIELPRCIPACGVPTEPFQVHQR
The data set is described as follows: Mouse C1s enzyme assay. It counts as biochemical. Conditions: supplementary csv. The text has this: Recombinant mouse C1s (22–694 aa) fused with both the N-terminal IgG signal peptide and the C-terminal His tag was expressed in Expi293 cells and purified. Mouse C1s was activated by recombinant human C1r prior to use. Mouse C1s assay conditions were the same as for human C1s, except that the enzyme solution concentration was 30 nmol/L.

For data set [2], the system named is C5b-9 MAC formation induced by human serum. The data set is described as follows: C5b-9 MAC complex formation study (Wieslab classical pathway kit). Conditions: in vitro, dose-dependent. It counts as biochemical. The procedure:
The levels of the complement activation product C5b-9 MAC were determined by a Wieslab complement system classical pathway kit (Svar Life Science, Malmo, Sweden). Briefly, diluted human serum was preincubated with the reagent diluent containing 0.3% DMSO or a range of concentrations of C1s inhibitors for 10 min at room temperature. Then, the preincubated serum was added to each well, and the plate was incubated for 30 min at 37 ° C with a lid. The plate was then washed three times, and subsequent processes were conducted by following the manufacturer’s instructions. Lastly, the absorbance was measured with a Multiskan microplate photometer (Thermo Fisher Scientific, MA, USA), and the levels of complement activation were calculated based on the standard curve generated with calibrators with serially diluted human serum. The samples with serum treatment were set as 100%, and the activities of the negative control (NC) without the addition of serum were set as 0%.

Data set [3] concerns the target human trypsin. The data set is described as follows: Human trypsin enzyme assay. It is filed as biochemical. The following applies: supplementary csv. The procedure:
Recombinant human trypsin (FUJIFILM Wako, Osaka, Japan) and the substrate were diluted in an assay buffer [50 mmol/L Tris–HCl (pH 7.5), 145 mmol/L NaCl, 2 mmol/L CaCl2, and 0.01% (w/v) Tween 20]. After 20 nL of compound solution was added to a 384-well black plate, 3 μL of substrate solution containing 25 μmol/L Boc-Phe-Ser-Arg-MCA (Peptide Institute, Osaka, Japan) was added to the plate. Then, 6 mU/mL human trypsin was added to the plate and incubated at room temperature for 60 min. The fluorescence at an excitation wavelength of 360 nm and an emission wavelength of 460 nm was detected using an EnVision multilabel plate reader.

Data set [4] has as its target T2, human thrombin (Homo sapiens, UniProt P00734).
T2 construct: purchased AnaSpec
The data set is described as follows: Human thrombin enzyme assay. It counts as biochemical. The following applies: supplementary csv. Here is the method:
The human thrombin enzyme activity was determined by a SensoLyte 520 thrombin activity assay kit (AnaSpec, CA, USA). Purified human thrombin and the substrate were diluted in the assay buffer 1. After 20 nL of compound solution was added to a 384-well black plate, 3 μL of the 2 μmol/L 5-FAM/QXLTM 520 thrombin substrate was added to the plate. Then, 8 nmol/L human thrombin was added to the plate and incubated at room temperature for 60 min. The fluorescence at an excitation wavelength of 485 nm and an emission wavelength of 535 nm was detected using an EnVision multilabel plate reader.

Data set [5] can be described thus: Pharmacokinetics analysis in mice (oral; plasma and brain). The following applies: for AUC0-24h / Cmax / MRT: plasma; for concentration at 2 h / Kp at 2 h / concentration at 24 h: male, C57BL/6J, mouse, brain; for Kp at 2 h: read-out: Brain to plasma ratio 2 h. It counts as in vivo. The procedure: Male C57BL/6J mice were purchased from The Jackson Laboratory Japan, Inc. (Kanagawa, Japan). […] The compound was dissolved in 10% DMSO/10% Cremophor EL/20% PEG400/60% 0.1 mol/L citric acid solution and administered orally at doses of 10, 30, or 100 mg/kg. Blood samples were collected into heparinized tubes at the designated time points (0.5, 1, 2, 4, 8, and 24 h postdosing), and brains were also collected at 2 and 24 h postdosing. Plasma was separated from the blood samples by centrifugation. The plasma and brain concentrations were quantified with high-performance liquid chromatography–tandem mass spectrometry. The lower limit of quantitation was 1 ng/mL for plasma and 5 ng/mL for brains.

The target of data set [6] is T3, human factor D (Homo sapiens, UniProt P00746).
T3 construct: Recombinant human factor D (26–253 aa) fused with both the N-terminal IgG signal peptide; IgG signal peptide (N); His tag (C); made in house; host or cells: Expi293 cells
Briefly: Human factor D enzyme assay. It counts as biochemical. Conditions: supplementary csv. The text has this:
Recombinant human factor D (26–253 aa) fused with both the N-terminal IgG signal peptide and the C-terminal His tag was expressed in Expi293 cells and purified. The human factor D assay condition was the same as for human MASP2, except that the enzyme solution concentration was 20 nmol/L and the substrate solution contained a 400 μmol/L Z-Lys-SBzl peptide and 50 μmol/L BES-Thio.

T3 sequence (P00746 26-253): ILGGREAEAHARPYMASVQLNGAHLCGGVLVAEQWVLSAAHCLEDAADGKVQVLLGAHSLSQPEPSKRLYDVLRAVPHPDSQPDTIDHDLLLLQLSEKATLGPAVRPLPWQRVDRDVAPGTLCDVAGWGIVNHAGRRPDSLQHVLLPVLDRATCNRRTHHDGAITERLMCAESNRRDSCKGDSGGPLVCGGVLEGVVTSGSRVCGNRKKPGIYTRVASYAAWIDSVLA

As to `Cc1cc([C@H]2CN(c3cc(F)c4c(N)nncc4c3)CCN2c2cccc(F)c2)no1` [Compound (R)-8, 8-Fluoro-6-[(3R)-4-(3-fluorophenyl)-3-(5-methyl-1,2-oxazol-3-yl)piperazin-1-yl]phthalazin-1-amine], the 50% inhibitory concentration (IC50) in data set [1] was 0.061 µM. For the same molecule, the “Inhibition of MAC formation induced by human serum” value in data set [2] is given as “significantly inhibited”. This molecule had a half-inhibitory concentration (IC50) in data set [3] above 30 µM. This molecule also had an IC50 in data set [4] above 30 µM. Besides, in data set [5] (10 mg/kg), the AUC0-24h is 6017.8 ± 390.4 ng·h/mL, the Cmax is reported as 1032.5 ± 173.0 ng/mL, the MRT was 4.31 ± 0.23 h and the concentration at 2 h came to 560 ± 106 ng/g. For the same molecule, in data set [5] (10 mg/kg), the Kp at 2 h worked out at 0.7 and the concentration at 24 h stood at 5.2 ± 0.2 ng/g. For the same molecule, in data set [5] (30 mg/kg), the AUC0-24h came to 21928.6 ± 1428.2 ng·h/mL, the Cmax was found to be 2583.3 ± 267.1 ng/mL, the MRT is recorded as 5.02 ± 0.18 h and the concentration at 2 h worked out at 3830 ± 935 ng/g. In data set [5] (30 mg/kg), the Kp at 2 h was 1.7 and the concentration at 24 h came to 8.9 ± 3.8 ng/g. In data set [5] (100 mg/kg), this molecule yielded an AUC0-24h of 139341.0 ± 36760.1 ng·h/mL, a Cmax of 8895.5 ± 1516.8 ng/mL, an MRT of 7.66 ± 0.99 h and a concentration at 2 h of 33600 ± 19300 ng/g. Besides, in data set [5] (100 mg/kg), the Kp at 2 h was 6 and the concentration at 24 h is 1860 ± 2400 ng/g. The same molecule showed an IC50 in data set [6] above 30 µM.

(Values after paper PMC10184130.)
